Data reported in patent publication US9156877B2, “17-hydroxy-17-pentafluorethyl-estra-4,9(10)-dien-11-benzylidene derivatives, methods for the production thereof and use thereof for treating diseases” (Bayer Intellectual Property GmbH, priority 2009, dated 2015).
pIC50: −log10 of the molar value. Values after ≈ are worked out from the molar mass of the structure shown.

Assays:
[1] = compared to the compounds of the invention; cited from earlier work
[2] = compared to the compounds of the invention; cited from earlier work; remark: listed apart in the source
[3] = biological target: T1, human progesterone receptor A (Homo sapiens, UniProt P06401); experiment: Progesterone receptor-antagonistic action in stably transfected SK-N-MC cells with MMTV-LUC reporter (PR-A); assay type: cell-based; details: antagonistic potency against 0.1 nmol/l promegestone, 24 hours, luciferase
T1 construct: expressed in transfected cells; host or cells: SK-N-MC human neuroblastoma cells, stably transfected with pRChPR-A-neo and pMMTV-LUC
T1 sequence (P06401 1-769 isoform P06401-2): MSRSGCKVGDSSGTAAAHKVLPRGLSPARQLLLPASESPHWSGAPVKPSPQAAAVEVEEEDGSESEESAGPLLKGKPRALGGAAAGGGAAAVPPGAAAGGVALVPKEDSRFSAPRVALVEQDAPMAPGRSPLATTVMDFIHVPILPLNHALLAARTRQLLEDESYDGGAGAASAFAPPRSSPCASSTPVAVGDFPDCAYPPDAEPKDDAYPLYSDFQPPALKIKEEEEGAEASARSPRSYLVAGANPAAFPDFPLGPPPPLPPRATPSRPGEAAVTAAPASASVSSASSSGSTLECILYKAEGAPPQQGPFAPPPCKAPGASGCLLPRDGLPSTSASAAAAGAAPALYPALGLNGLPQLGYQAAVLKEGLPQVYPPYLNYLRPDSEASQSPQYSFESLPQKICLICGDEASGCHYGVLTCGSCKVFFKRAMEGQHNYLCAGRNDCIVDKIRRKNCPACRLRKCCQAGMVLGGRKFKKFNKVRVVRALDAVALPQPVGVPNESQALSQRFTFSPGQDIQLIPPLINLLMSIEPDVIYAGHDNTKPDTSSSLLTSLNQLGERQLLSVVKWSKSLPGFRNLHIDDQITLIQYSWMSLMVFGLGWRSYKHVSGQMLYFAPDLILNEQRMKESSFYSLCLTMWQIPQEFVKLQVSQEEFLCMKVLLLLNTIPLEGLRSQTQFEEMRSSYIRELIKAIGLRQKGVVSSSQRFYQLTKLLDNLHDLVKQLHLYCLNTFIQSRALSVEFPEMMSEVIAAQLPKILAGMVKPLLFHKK
Summary of the method: (§1)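 SK-N-MC neuroblastoma cells stably expressing human PR-A or PR-B plus MMTV-LUC reporter, treated 24 h with test compound (0.01 nmol/l–[…]). Antagonist mode used co-treatment with 0.1 nmol/l promegestone; luciferase in lysates read as RLU, expressed as % efficacy and IC50/EC50.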

[4] = biological target: T2, human progesterone receptor B (Homo sapiens, UniProt P06401); experiment: Progesterone receptor-antagonistic action in stably transfected SK-N-MC cells with MMTV-LUC reporter (PR-B); assay type: cell-based; details: antagonistic potency against 0.1 nmol/l promegestone, 24 hours, luciferase
T2 construct: expressed in transfected cells; host or cells: SK-N-MC human neuroblastoma cells, stably transfected with pRChPR-B-neo and pMMTV-LUC
T2 sequence (P06401 1-933): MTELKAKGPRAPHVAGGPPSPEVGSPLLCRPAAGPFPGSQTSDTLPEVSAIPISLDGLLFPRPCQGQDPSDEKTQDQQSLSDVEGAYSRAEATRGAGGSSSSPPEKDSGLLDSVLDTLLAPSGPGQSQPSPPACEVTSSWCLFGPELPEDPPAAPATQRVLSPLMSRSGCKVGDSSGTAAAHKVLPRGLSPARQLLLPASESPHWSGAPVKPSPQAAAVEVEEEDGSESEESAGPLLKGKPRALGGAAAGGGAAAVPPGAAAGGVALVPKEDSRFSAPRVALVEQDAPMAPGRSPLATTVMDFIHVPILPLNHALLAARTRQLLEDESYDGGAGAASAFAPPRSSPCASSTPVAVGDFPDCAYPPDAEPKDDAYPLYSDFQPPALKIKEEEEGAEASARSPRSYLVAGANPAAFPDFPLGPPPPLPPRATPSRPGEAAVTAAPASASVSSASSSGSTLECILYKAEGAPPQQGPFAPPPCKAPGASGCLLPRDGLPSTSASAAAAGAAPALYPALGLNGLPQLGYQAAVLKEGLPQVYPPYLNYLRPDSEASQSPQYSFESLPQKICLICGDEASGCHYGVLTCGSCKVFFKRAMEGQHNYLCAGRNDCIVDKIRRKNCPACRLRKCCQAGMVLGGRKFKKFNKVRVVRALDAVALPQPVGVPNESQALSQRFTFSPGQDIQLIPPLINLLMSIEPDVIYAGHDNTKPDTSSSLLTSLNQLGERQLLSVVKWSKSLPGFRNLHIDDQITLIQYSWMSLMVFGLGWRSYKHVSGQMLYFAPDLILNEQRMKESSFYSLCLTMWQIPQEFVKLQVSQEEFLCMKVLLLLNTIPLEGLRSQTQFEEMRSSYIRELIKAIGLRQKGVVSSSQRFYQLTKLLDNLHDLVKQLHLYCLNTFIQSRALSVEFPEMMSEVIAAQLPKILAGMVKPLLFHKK
Summary of the method: as §1

[5] = Metabolic stability in human liver microsomes; assay type: in vitro ADME; details: for Predicted clearance [l/h/kg] Human: 1 μM, well-stirred model
Summary of the method: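 Human liver microsomes (0.5 mg/ml protein) were incubated with compound at 1 μM final and an NADPH-generating system in 100 mM phosphate pH 7.4 at 37 °C. Six samples (2–60 min) were methanol-quenched and measured by LC-MS/MS. Degradation half-life gave intrinsic clearance; Fmax assumed 100% absorption and first pass equal to microsomal metabolism.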

[6] = Metabolic stability in rat liver microsomes; assay type: in vitro ADME; details: for Predicted clearance [l/h/kg] Rat: well-stirred model
Summary of the method: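 Liver microsomes (solution at 0.5 mg/ml protein before cofactor addition) with 1 μM compound (final) and an NADPH-generating system at 37 °C, 100 mM phosphate pH 7.4, were sampled at 6 time points (2-60 min), methanol-quenched and analysed by LC-MS/MS. Half-life gave intrinsic clearance, and Fmax assumed 100% absorption and purely microsomal first pass.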

[7] = Solubility in aqueous medium at pH 7.4; assay type: physicochemical; details: for solubility (in words): aqueous medium under physiological conditions; for solubility: aqueous medium, pH 7.4, aqueous buffer
Description: In addition, some compounds have an unusually good solubility, for this active ingredient class, in aqueous medium under physiological conditions (Table 2).

pregnant rats = experiment: Abortion test on female rats; assay type: in vivo, rat; details: d5-d7 p.c., autopsy d9 p.c.
Description: Abortion Test on Female Rats
The action of progesterone and of the progesterone receptor is a fundamental precondition for successful pregnancy or gestation in mammals. The progesterone-antagonistic action of the inventive compounds was tested on pregnant rats (6 rats per group) on days 5 to 7 post coitum under conventional housing and feeding conditions.
After successful mating, the pregnant animals (presence of sperm in the vaginal smear on day 1 of pregnancy=d1 p.c.) were randomized and divided into the treatment group and the control group. The animals then each received subcutaneously or orally 0.15; 0.5; 1.5 or 5 mg/kg of the test compound or 1.0 ml/kg of vehicle (benzyl benzoate/castor oil: 1+4 [v/v]) daily from day 5 to day 7 (d5-d7 p.c.).
Autopsy was conducted on day 9 (d9 p.c.). As a characteristic of progesterone receptor-antagonistic action, the uterus was examined for the presence of nidation sites. Complete absence, or else the presence of pathological, haemorrhagic or otherwise abnormal nidation sites, on day 9 (d9 p.c.) was considered as abortion.

SMILES	in vivo half-life (in words) [1]	water solubility (in words) [2]	pIC50 [3]	pIC50 [4]	Predicted Fmax [%] (maximum oral bioavailability) Human [5]	Predicted clearance [l/h/kg] Human [5] [L/h/kg]	Predicted Fmax [%] (maximum oral bioavailability) Rat [6]	Predicted clearance [l/h/kg] Rat [6] [L/h/kg]	solubility (in words) [7]	solubility [7] [µg/mL]	Abortion rate [%] (pregnant rats; daily dose 0.5 mg/kg p.o.)	Abortion rate [%] (pregnant rats; daily dose 1.5 mg/kg p.o.)	Abortion rate [%] (pregnant rats; daily dose 5.0 mg/kg p.o.)
CC(=O)c1ccc(C2CC3(C)C(CCC3(O)C(F)(F)C(F)(F)F)C3CCC4=CC(=O)CCC4=C23)cc1 (stereo not drawn) [11-β-(4-acetylphenyl)-20,20,21,21,21-pentafluoro-17-hydroxynor-17-pregna-4,9-dien-3-one]	relatively short	poor	–	–	–	–	–	–	–	–	–	–	–
C[C@]12C[C@H](c3ccc(/C=C/C=C/C(=O)O)cc3)C3=C4CCC(=O)C=C4CC[C@H]3[C@@H]1CC[C@@]2(O)C(F)(F)C(F)(F)F [Example 17, (2E,4E)-5-[4-((8S,11R,13S,14S,17S)-17-hydroxy-13-methyl-3-oxo-17-pentafluoroethyl-2,3,6,7,8,11,12,13,14,15,16,17-dodecahydro-1H-cyclopenta[a]phenanthren-11-yl)phenyl]penta-2,4-dienoic acid]	–	–	10.00	9.15	33	0.89	91	0.4	improved	> 188	0	16.7	100.0
C[C@]12C[C@H](c3ccc(/C=C/c4ccc(C(=O)O)cc4)cc3)C3=C4CCC(=O)C=C4CC[C@H]3[C@@H]1CC[C@@]2(O)C(F)(F)C(F)(F)F [Example 29, 4-{(E)-2-[4-((8S,11R,13S,14S,17S)-17-hydroxy-13-methyl-3-oxo-17-pentafluoroethyl-2,3,6,7,8,11,12,13,14,15,16,17-dodecahydro-1H-cyclopenta[a]phenanthren-11-yl)phenyl]vinyl}benzoic acid]	–	–	10.10	10.05	94	0.08	100	0.0	improved	102 (≈ 166 µM)	0	16.7	100.0
